These are literature values, as cited in PMC4090575, “An In Vivo Microdialysis Study of FLZ Penetration through the Blood-Brain Barrier in Normal and 6-Hydroxydopamine Induced Parkinson's Disease Model Rats” (BioMed Research International, 2014).

For the data set, the system named is P-gp mediated multidrug resistance. Further details: method as in PMID 9381979. The following applies: high therapeutic index; cited from earlier work.

For `Cl.Cl.Cl.O[C@@H](COc1cccc2ncccc12)CN1CCN([C@@H]2c3ccccc3[C@@H]3[C@H](c4ccccc42)C3(F)F)CC1` [Zosuquidar·3HCl, zosuquidar trihydrochloride], the “active doses in in vivo antitumor efficacy experiments” value was 1 to 30 mg/kg.
